Test results: patent publication US20220313629A1, “TRANSIENT POTENTIAL MELASTATIN 8 (TRPM8) ANTAGONISTS AND RELATED METHODS” (MARSHALL UNIVERSITY RESEARCH CORPORATION, priority 2019, published 2022)
Read-outs that look alike come from different tables or passages of the source.

Columns and labels:
Assay type in all cases: cell-based
[1] = target: human TRPV1 (Homo sapiens, UniProt Q8NER1); experiment: TRPV1 agonist and antagonist Ca2+ flux assay (FLIPR, Fluo-8) in HEK293 cells stably expressing human TRPV1
[2] = target: human TRPA1 (Homo sapiens, UniProt O75762); experiment: TRPA1 agonist and antagonist Ca2+ flux assay (FLIPR, Fluo-8) in HEK293 cells stably expressing human TRPA1
[3] = target: TRPM8 (Homo sapiens, UniProt Q7Z2W7); experiment: TRPM8 antagonist activity by Fura-2 Ca2+ imaging in HEK-293 cells stably expressing human TRPM8; conditions: for IC50: read-out: Functional Activity hTRPM8 potency IC50 ± SEM
[4] = HEK293; read-out: hTRPA1 % Inhibition (n = 3)
[5] = at concentrations 13- to 25-fold higher than hTRPM8 IC50
[6] = tested at 30 nM; normalized to Emax of AITC (300 μM)
[7] = HEK293; read-out: hTRPV1 % Inhibition (n = 3)
[8] = tested at 30 nM; normalized to Emax of capsaicin (3 μM)
[9] = inhibition of icilin (500 nM)-evoked Ca2+ entry, HEK-293 cells stably expressing hTRPM8, mean ± SEM, three independent experiments
[10] = tested at 100 nM; normalized to Emax of AITC (300 μM)
[11] = tested at 100 nM; normalized to Emax of capsaicin (3 μM)
[12] = tested at 1 μM; normalized to Emax of AITC (300 μM)
[13] = tested at 1 μM; normalized to Emax of capsaicin (3 μM)
[14] = HEK293; read-out: % Activation Mean ± SEM (n = 5), TRPV1 antagonist data (Percentage Inhibition Normalized to EC80 Control)
[15] = HEK293, read-out: hTRPA1 % Inhibition (n = 3)
[16] = HEK293, read-out: hTRPV1 % Inhibition (n = 3)

Chain of human TRPA1 (O75762 whole entry): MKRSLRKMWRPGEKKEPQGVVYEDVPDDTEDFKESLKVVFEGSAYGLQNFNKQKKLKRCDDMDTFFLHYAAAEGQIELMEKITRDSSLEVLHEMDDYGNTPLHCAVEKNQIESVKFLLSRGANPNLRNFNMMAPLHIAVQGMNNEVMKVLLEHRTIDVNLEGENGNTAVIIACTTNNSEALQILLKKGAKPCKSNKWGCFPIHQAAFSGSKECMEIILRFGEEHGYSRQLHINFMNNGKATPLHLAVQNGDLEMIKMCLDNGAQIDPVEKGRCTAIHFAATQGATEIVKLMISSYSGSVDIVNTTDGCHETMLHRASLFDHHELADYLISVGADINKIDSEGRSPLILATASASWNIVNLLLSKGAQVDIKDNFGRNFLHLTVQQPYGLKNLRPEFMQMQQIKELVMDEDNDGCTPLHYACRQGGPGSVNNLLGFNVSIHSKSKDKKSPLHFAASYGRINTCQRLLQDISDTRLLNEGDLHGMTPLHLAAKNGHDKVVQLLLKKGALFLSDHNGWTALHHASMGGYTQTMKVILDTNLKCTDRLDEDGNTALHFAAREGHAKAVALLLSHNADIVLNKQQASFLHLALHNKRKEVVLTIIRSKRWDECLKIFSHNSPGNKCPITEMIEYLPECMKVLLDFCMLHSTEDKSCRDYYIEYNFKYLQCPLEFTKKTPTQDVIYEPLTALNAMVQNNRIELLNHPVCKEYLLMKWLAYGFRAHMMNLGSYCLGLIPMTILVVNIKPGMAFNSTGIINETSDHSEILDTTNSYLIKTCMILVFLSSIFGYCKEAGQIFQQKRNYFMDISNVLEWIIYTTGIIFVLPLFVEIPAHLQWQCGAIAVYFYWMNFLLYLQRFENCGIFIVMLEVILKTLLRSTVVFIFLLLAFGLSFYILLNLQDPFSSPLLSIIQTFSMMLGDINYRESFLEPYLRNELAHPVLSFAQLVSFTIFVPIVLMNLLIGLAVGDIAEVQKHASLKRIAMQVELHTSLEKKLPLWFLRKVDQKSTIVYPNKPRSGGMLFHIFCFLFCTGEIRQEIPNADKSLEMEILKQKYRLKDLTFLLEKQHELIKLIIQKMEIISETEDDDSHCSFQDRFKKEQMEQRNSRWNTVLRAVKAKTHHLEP
Chain of human TRPV1 (Q8NER1 whole entry): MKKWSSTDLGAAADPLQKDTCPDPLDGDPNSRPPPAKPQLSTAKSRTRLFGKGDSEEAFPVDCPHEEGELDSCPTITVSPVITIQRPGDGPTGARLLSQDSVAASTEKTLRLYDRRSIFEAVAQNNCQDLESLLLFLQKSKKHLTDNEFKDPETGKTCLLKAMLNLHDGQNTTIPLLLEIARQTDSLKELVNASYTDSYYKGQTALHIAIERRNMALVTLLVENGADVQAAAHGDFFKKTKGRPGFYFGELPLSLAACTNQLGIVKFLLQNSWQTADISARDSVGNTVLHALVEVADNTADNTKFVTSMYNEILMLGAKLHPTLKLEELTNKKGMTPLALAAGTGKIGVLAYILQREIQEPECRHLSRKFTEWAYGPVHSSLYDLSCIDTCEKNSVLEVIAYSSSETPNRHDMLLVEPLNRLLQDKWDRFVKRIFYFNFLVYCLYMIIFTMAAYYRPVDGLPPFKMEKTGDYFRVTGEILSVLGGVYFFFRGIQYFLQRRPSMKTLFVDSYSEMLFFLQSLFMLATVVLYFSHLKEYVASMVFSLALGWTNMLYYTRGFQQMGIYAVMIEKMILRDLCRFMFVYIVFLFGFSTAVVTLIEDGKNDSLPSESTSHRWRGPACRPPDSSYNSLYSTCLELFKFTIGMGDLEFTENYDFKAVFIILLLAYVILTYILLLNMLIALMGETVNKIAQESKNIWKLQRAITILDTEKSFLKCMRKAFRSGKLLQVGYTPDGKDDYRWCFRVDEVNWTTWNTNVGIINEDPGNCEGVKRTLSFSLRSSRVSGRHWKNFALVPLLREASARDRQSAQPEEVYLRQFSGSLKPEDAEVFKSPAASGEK
Chain of TRPM8 (Q7Z2W7 whole entry): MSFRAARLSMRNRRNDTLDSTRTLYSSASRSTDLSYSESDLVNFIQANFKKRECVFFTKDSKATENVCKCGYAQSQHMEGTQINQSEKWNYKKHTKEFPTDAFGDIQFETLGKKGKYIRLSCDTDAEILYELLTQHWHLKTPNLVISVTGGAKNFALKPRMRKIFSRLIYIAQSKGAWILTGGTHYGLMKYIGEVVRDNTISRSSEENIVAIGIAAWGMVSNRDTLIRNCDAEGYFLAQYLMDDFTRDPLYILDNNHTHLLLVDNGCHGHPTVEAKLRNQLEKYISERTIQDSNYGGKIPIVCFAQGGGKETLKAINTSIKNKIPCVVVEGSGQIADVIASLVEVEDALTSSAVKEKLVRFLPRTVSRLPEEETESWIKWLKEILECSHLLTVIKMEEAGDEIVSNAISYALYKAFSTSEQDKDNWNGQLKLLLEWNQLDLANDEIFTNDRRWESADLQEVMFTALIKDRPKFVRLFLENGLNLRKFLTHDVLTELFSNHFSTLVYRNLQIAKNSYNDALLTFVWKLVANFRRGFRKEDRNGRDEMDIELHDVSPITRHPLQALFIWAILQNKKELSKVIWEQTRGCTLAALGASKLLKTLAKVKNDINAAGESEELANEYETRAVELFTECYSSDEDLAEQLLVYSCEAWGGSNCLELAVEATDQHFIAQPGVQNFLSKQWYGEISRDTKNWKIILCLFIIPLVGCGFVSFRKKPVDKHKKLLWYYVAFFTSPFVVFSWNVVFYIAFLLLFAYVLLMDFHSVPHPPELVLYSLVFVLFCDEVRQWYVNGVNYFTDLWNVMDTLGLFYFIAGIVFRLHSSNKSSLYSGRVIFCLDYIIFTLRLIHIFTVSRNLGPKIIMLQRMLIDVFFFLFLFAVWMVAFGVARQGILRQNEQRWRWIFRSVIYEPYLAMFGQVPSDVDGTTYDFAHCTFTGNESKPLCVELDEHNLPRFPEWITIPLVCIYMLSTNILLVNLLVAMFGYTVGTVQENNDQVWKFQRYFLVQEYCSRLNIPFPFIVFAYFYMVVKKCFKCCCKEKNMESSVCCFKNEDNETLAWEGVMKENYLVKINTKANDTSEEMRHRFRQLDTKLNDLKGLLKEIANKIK

Compound: COc1cc(CNC(=O)CCCC/C=C/C(C)C)ccc1O [Capsaicin, reference compound]
- % Activation Mean ± SEM (n = 5), TRPV1 agonist data ([1]; 1 nM; normalized to Emax of capsaicin): −0.2 ± 1.0%
- % Activation Mean ± SEM (n = 5), TRPV1 agonist data ([1]; 3 nM; normalized to Emax of capsaicin): −1.7 ± 0.7%
- % Activation Mean ± SEM (n = 5), TRPV1 agonist data ([1]; 10 nM; normalized to Emax of capsaicin): 15.2 ± 0.6%
- % Activation Mean ± SEM (n = 5), TRPV1 agonist data ([1]; 30 nM; normalized to Emax of capsaicin): 72.4 ± 2.3%
- % Activation Mean ± SEM (n = 5), TRPV1 agonist data ([1]; 100 nM; normalized to Emax of capsaicin): 81.4 ± 3.3%
- % Activation Mean ± SEM (n = 5), TRPV1 agonist data ([1]; 300 nM; normalized to Emax of capsaicin): 91.8 ± 3.7%
- % Activation Mean ± SEM (n = 5), TRPV1 agonist data ([1]; 1,000 nM; normalized to Emax of capsaicin): 101.6 ± 2.0%
- % Activation Mean ± SEM, TRPV1 agonist data ([1]; 3,000 nM; normalized to Emax of capsaicin; n = 10): 100.0 ± 1.8 %
- % Activation, EC80 agonist control of the TRPV1 antagonist assay ([1]; Capsaicin EC80, 100 nM; normalization control): 100%

Compound: O=C(NC12CC3CC(CC(C3)C1)C2)c1ccc(-c2ccccc2)cc1 [Compound 15, N-(adamantan-1-yl)-[1,1′-biphenyl]-4-carboxamide]
- inhibition at 0.3 µM [2, 4]: -7 ± 7%
- effect on hTRPA1-mediated responses (intrinsic and antagonist activity) [2, 5]: do not affect
- hTRPA1 % Activation (n = 3-5) [2, 6]: −2.6 ± 0.5%
- hTRPA1 % Activation (n = 3-5) ([2]; tested at 300 nM; normalized to Emax of AITC (300 μM)): −1.5 ± 0.4%
- inhibition at 0.03 µM [1, 7]: -6 ± 5%
- inhibition at 0.3 µM [1, 7]: 3 ± 4%
- effect on hTRPV1-mediated responses (intrinsic and antagonist activity) [1, 5]: do not affect
- hTRPV1 % Activation (n = 3) [1, 8]: 1.0 ± 0.2%
- hTRPV1 % Activation (n = 3) ([1]; tested at 300 nM; normalized to Emax of capsaicin (3 μM)): 1 ± 2%
- IC50 [3, 9]: 16 ± 1 nM

Compound: O=C(NC1CCCc2ccccc21)c1ccc(-c2ccccc2)cc1 (stereo not drawn) [Compound 9, N-(1,2,3,4-tetrahydronaphthalen-1-yl)-[1,1′-biphenyl]-4-carboxamide]
- loss of potency vs. Compound 8 ([3]; icilin Ca2+ assay): 3 fold
- IC50 [3]: 55000 ± 1000 nM

Compound: O=C(NC1CCC2CCCCC2C1)c1ccc(-c2ccccc2)cc1 (mixture of isomers) [Compound 10, N-(decahydronaphthalen-2-yl)-[1,1′-biphenyl]-4-carboxamide]
- inhibition at 0.01 µM [2, 4]: -8 ± 3%
- inhibition at 0.1 µM [2, 4]: -1 ± 10%
- effect on hTRPA1-mediated responses (intrinsic and antagonist activity) [2, 5]: does not activate or inhibit
- hTRPA1 % Activation (n = 3-5) ([2]; tested at 10 nM; normalized to Emax of AITC (300 μM)): 0.2 ± 0.4%
- hTRPA1 % Activation (n = 3-5) [2, 10]: −1.1 ± 0.2%
- inhibition at 0.01 µM [1, 7]: -13 ± 4%
- inhibition at 0.1 µM [1, 7]: 2 ± 3%
- effect on hTRPV1-mediated responses (intrinsic and antagonist activity) [1, 5]: does not activate or inhibit
- hTRPV1 % Activation (n = 3) ([1]; tested at 10 nM; normalized to Emax of capsaicin (3 μM)): 2.4 ± 0.8%
- hTRPV1 % Activation (n = 3) [1, 11]: 2.3 ± 0.9%
- enhancement of TRPM8 potency relative to Compound 8 ([3]; icilin Ca2+ assay): 3,500 fold
- higher potency than Compound 5 and Compound 7 ([3]; icilin Ca2+ assay): 10 fold
- IC50 [3, 9]: 6 ± 1 nM
- IC50 [3]: ≤ 10 nM

Compound: O=C(NC1CC2CCC(C2)C1)c1ccc(-c2ccccc2)cc1 (stereo not drawn) [Compound 6, N-(bicyclo[3.2.1]octan-3-yl)-[1,1′-biphenyl]-4-carboxamide]
- IC50 [3, 9]: 692 ± 1 nM

Compound: CC1CCC(C(C)C)C(NC(=O)c2ccc(-c3ccccc3)cc2)C1 (mixture of isomers) [Compound 2, N-(2-isopropyl-5-methylcyclohexyl)-[1,1′-biphenyl]-4-carboxamide]
- increase of hTRPM8 activity relative to Compound 1 ([3]; icilin Ca2+ assay): 30 fold
- IC50 [3, 9]: 468 ± 1 nM

Compound: C=CCN=C=S [AITC, Allyl isothiocyanate, reference compound]
- % Activation Mean ± SEM (n = 5), TRPA1 agonist data ([2]; 100 nM; normalized to Emax of AITC): −0.8 ± 0.4%
- % Activation Mean ± SEM (n = 5), TRPA1 agonist data ([2]; 300 nM; normalized to Emax of AITC): −0.5 ± 0.2%
- % Activation Mean ± SEM (n = 5), TRPA1 agonist data ([2]; 1,000 nM; normalized to Emax of AITC): −0.5 ± 0.2%
- % Activation Mean ± SEM (n = 5), TRPA1 agonist data ([2]; 3,000 nM; normalized to Emax of AITC): −1.2 ± 0.2%
- % Activation Mean ± SEM (n = 5), TRPA1 agonist data ([2]; 10,000 nM; normalized to Emax of AITC): 68.8 ± 2.9%
- % Activation Mean ± SEM (n = 5), TRPA1 agonist data ([2]; 30,000 nM; normalized to Emax of AITC): 78.5 ± 1.0%
- % Activation Mean ± SEM (n = 5), TRPA1 agonist data ([2]; 100,000 nM; normalized to Emax of AITC): 94.2 ± 2.4%
- % Activation Mean ± SEM, TRPA1 agonist data ([2]; 300,000 nM; normalized to Emax of AITC; n = 10): 100.0 ± 1.3 %

Compound: O=C(NC1CCCCC1)c1ccc(-c2ccccc2)cc1 [Compound 3, N-cyclohexyl-[1,1′-biphenyl]-4-carboxamide]
- IC50 [3, 9]: 49000 ± 1000 nM

Compound: O=C(NC1CCCCCCC1)c1ccc(-c2ccccc2)cc1 [Compound 7, N-cyclooctyl-[1,1′-biphenyl]-4-carboxamide]
- inhibition at 0.1 µM [2, 4]: -13 ± 4%
- inhibition at 1 µM [2, 4]: 0.2 ± 6%
- hTRPA1 % Activation (n = 3-5) [2, 10]: −1.0 ± 0.1%
- hTRPA1 % Activation (n = 3-5) [2, 12]: −1.5 ± 0.9%
- inhibition at 0.1 µM [1, 7]: -4 ± 4%
- inhibition at 1 µM [1, 7]: 14 ± 4%
- hTRPV1 % Activation (n = 3) [1, 11]: −1.9 ± 0.7%
- hTRPV1 % Activation (n = 3) [1, 13]: −3.2 ± 0.6%
- IC50 [3, 9]: 62 ± 1 nM

Compound: O=C(NC1CCC2CCCCC2C1)c1ccc(-c2ccccc2)cc1 (racemic) [Compound 12, N-((2SR,9RS,10SR)-decahydronaphthalen-2-yl)-[1,1′-biphenyl]-4-carboxamide]
- inhibition at 0.003 µM [2, 4]: -0.3 ± 3%
- inhibition at 0.03 µM [2, 4]: 5 ± 9%
- effect on hTRPA1-mediated responses (intrinsic and antagonist activity) [2, 5]: do not affect
- hTRPA1 % Activation (n = 3-5) ([2]; tested at 3 nM; normalized to Emax of AITC (300 μM)): −2.3 ± 1.0%
- hTRPA1 % Activation (n = 3-5) [2, 6]: −2.1 ± 0.5%
- inhibition at 0.003 µM [1, 7]: -12 ± 3%
- inhibition at 0.03 µM [1, 7]: 1 ± 2%
- effect on hTRPV1-mediated responses (intrinsic and antagonist activity) [1, 5]: do not affect
- hTRPV1 % Activation (n = 3) ([1]; tested at 3 nM; normalized to Emax of capsaicin (3 μM)): 2 ± 1%
- hTRPV1 % Activation (n = 3) [1, 8]: 3 ± 1%

Compound: O=C(NC1CCCC2CCCCC21)c1ccc(-c2ccccc2)cc1 (mixture of isomers) [Compound 8, N-(decahydronaphthalen-1-yl)-[1,1′-biphenyl]-4-carboxamide]
- IC50 [3, 9]: 21000 ± 1000 nM

Compound: Oc1cc2c(cc1O)CN(C(=S)NCCc1ccc(Cl)cc1)CCC2 [Capsazepine, reference compound]
- inhibition at 0.003 µM [1, 14]: 1.6 ± 4.2%
- inhibition at 0.01 µM [1, 14]: 0.1 ± 1.3%
- inhibition at 0.03 µM [1, 14]: 1.1 ± 1.7%
- inhibition at 0.1 µM [1, 14]: 7.1 ± 2.2%
- inhibition at 0.3 µM [1, 14]: 23.4 ± 2.5%
- inhibition at 1 µM [1, 14]: 94.2 ± 1.1%
- inhibition at 3 µM [1, 14]: 100.6 ± 0.3%
- inhibition at 10 µM [1, 14]: 101.2 ± 0.5%
- IC50 ([1]; capsaicin 100 nM; read-out: IC50, blockade of capsaicin-activated hTRPV1 responses): 451 ± 48 nM

Compound: O=C(NC1CCc2ccccc2C1)c1ccc(-c2ccccc2)cc1 (stereo not drawn) [Compound 11, N-(1,2,3,4-tetrahydronaphthalen-2-yl)-[1,1′-biphenyl]-4-carboxamide]
- inhibition at 0.1 µM [2, 15]: 3 ± 6%
- inhibition at 1 µM [2, 15]: 4 ± 1%
- hTRPA1 % Activation (n = 3-5) [2, 10]: −0.1 ± 0.5%
- hTRPA1 % Activation (n = 3-5) [2, 12]: −0.8 ± 0.6%
- inhibition at 0.1 µM [1, 16]: -3.1 ± 0.6%
- inhibition at 1 µM [1, 16]: 13 ± 3%
- hTRPV1 % Activation (n = 3) [1, 11]: −1.8 ± 0.9%
- hTRPV1 % Activation (n = 3) [1, 13]: −0.7 ± 1.5%
- decrease of hTRPM8 potency (vs. Compound 10) ([3]; icilin Ca2+ assay): 9 fold
- IC50 [3]: 52 ± 1 nM

Compound: O=C(NC1CC2CCC1C2)c1ccc(-c2ccccc2)cc1 (single isomer, unassigned) [Compound 4, N-(bicyclo[2.2.1]heptan-2-yl)-[1,1′-biphenyl]-4-carboxamide]
- IC50 [3]: 7100 ± 900 nM

Compound: CC(C)[C@@H]1CC[C@@H](C)C[C@H]1NC(=O)c1ccc(-c2ccccc2)cc1 [Compound 1, reference compound]
- IC50 [3]: 16000 ± 1000 nM

Compound: O=C(NC1CCC2(CCCCC2)CC1)c1ccc(-c2ccccc2)cc1 [Compound 13, N-(spiro[5.5]undecan-3-yl)-[1,1′-biphenyl]-4-carboxamide]
- inhibition at 0.1 µM [2, 4]: -1 ± 5%
- inhibition at 1 µM [2, 4]: -7 ± 9%
- effect on hTRPA1-mediated responses (intrinsic and antagonist activity) [2, 5]: do not affect
- hTRPA1 % Activation (n = 3-5) [2, 10]: 0.2 ± 0.5%
- hTRPA1 % Activation (n = 3-5) [2, 12]: −0.2 ± 1.1%
- inhibition at 0.1 µM [1, 7]: -3 ± 4%
- inhibition at 1 µM [1, 7]: 5 ± 2%
- effect on hTRPV1-mediated responses (intrinsic and antagonist activity) [1, 5]: do not affect
- hTRPV1 % Activation (n = 3) [1, 11]: −1.0 ± 0.4%
- hTRPV1 % Activation (n = 3) [1, 13]: 0.7 ± 0.2%
- IC50 [3, 9]: 40 ± 1 nM

Compound: O=C(NC1CCCCCC1)c1ccc(-c2ccccc2)cc1 [Compound 5, N-cycloheptyl-[1,1′-biphenyl]-4-carboxamide]
- inhibition at 0.1 µM [2, 4]: -2 ± 5%
- inhibition at 1 µM [2, 4]: 4 ± 5%
- hTRPA1 % Activation (n = 3-5) [2, 10]: 0.1 ± 0.7%
- hTRPA1 % Activation (n = 3-5) [2, 12]: 0.8 ± 0.5%
- inhibition at 0.1 µM [1, 7]: -3 ± 4%
- inhibition at 1 µM [1, 7]: 24 ± 1%
- hTRPV1 % Activation (n = 3) [1, 11]: 0.0 ± 1.0%
- hTRPV1 % Activation (n = 3) [1, 13]: 0.6 ± 1.5%
- IC50 [3, 9]: 52 ± 1 nM
